The values below come from US20210077500A1, “PIKFYVE INHIBITORS FOR CANCER THERAPY” (Al Therapeutics, Inc., priority 2019, published 2021).

Bounds are passed on as bounds.

One experiment deals with EBC-1. Kind of experiment: 5-day viability assay, single agent and combination (Chou-Talalay CI). The note with it: Homo sapiens, EBC-1, 120 h, read-out: IC50 (single agent), EBC-1; 120 h; average of two independent experiments.
A further experiment concerns MKN45. Described as above. As to conditions: Homo sapiens, MKN-45, 120 h, read-out: IC50 (single agent), MKN45; 120 h; average of two independent experiments.
The subject of a further experiment is HCT-15. The experiment can be described thus: CellTiter-Glo cell viability, single agent and combination (Chou-Talalay CI). Type of experiment: cell-based. The note with it: Homo sapiens, HCT-15, 120 h, HCT-15 (colorectal, KRAS G13D), average of two independent experiments. In general terms: ATP-based viability assays read luminescence as a measure of living cells.

The subject of another experiment is HT-29. The experiment is described as above. Type of experiment: cell-based. The note with it: Homo sapiens, HT-29, 120 h, HT-29 (colorectal, BRAF V600E), average of two independent experiments.
The next experiment has as its system Caki-1. Kind of experiment: 5-day viability assay, single agent and combination (Chou-Talalay CI). The note with it: Homo sapiens, CAKI-1, 120 h, read-out: IC50 (single agent).
Another experiment concerns A549. The experiment can be described thus: CellTiter-Glo cell viability, single agent and combination (Chou-Talalay CI). The note with it: Homo sapiens, A549, 120 h, read-out: IC50 (single agent).
In the next experiment the test system is RKO cells. The description is as above. The note with it: Homo sapiens; for IC50: 120 h, read-out: IC50 (single agent), RKO (colorectal, BRAF V600E), 120 h, average of two independent experiments.
The test system of another experiment is GP5d. The experiment is described as above. The class given is cell-based. As to conditions: Homo sapiens, 120 h, GP5d (colorectal, KRAS G12D), average of two independent experiments.
In the next experiment the test system is LS411N. The experiment is described as above. Type of experiment: cell-based. The note with it: Homo sapiens, LS-411N, 120 h, LS411N (colorectal, BRAF V600E), average of two independent experiments.
Another experiment concerns NCI-H1792. The experiment is described as above. The note with it: Homo sapiens, NCI-H1792, 120 h, read-out: IC50 (single agent).
In another experiment the test system is A375. Described as above. As to conditions: Homo sapiens, A-375, 120 h, read-out: IC50 (single agent).
The mark [1] stands for this setting: read-out: Viability (normalized).

Protocol for A375: (§1) For assessment of synergistic activity, cells of each cell line were seeded at optimal density for growth onto different 96-well plates and placed into a humidified incubator (37° C., 5% CO2) to adhere overnight. […] Cells were treated for 120 hours and then assayed for cell viability using CellTiter-Glo™ (Promega).
(§2) Using this method, a CI value is calculated based on the effects of each drug alone on cell viability (single agent treatment) and the effects of each drug combination, across all combinations of both agents tested. The single agent treatments consisted of 8 different concentrations of each single agent, obtained by serial dilution. The concentrations were chosen to provide a range above and below the IC50 value of the single agent (if achieved) in a given cell line.
Protocol for A549: as §1, §2
Protocol for Caki-1: (§3) For assessment of synergistic activity, cells of each cell line were seeded at optimal density for growth onto different 96-well plates and placed into a humidified incubator (37° C., 5% CO2) to adhere overnight. The following day, the cells on each plate were treated either with a single agent (a PIKfyve inhibitor, e.g., apilimod, or a RAS pathway inhibitor) or with a combination of the two agents. Cells were treated for 120 hours and then assayed for cell viability using CellTiter-Glo™ (Promega).
as §2
(§4) D1 alone and D2 alone were estimated from Hill's equation:
(§5) Here, we utilized cells harboring MET pathway activation, particularly the EBC-1, MKN45 and Caki-1 cell lines. In addition to MET inhibitors, since MET activates the RAS pathway, we also assayed for synergistic activity with inhibitors of the RAS pathway in these cells.
Protocol for EBC-1: as §3, §2, §4, §5
Protocol for GP5d: as §3, §2, §4
Protocol for HCT-15: as §3, §2, §4
Protocol for HT-29: as §3, §2, §4
Protocol for LS411N: as §3, §2, §4
Protocol for MKN45: as §3, §2, §4, §5
Protocol for NCI-H1792: as §1, §2
Protocol for RKO cells: as §3, §2
In each experiment for a given cell line, the combination treatments consisted of 8×8 or 64 different combination treatments.
Using this method, combinations with CI values>1 are considered antagonistic, CI values=1 are considered additive, and CI values<1 are considered synergistic.

In general, IC50 refers to the concentration needed to halve the response being measured. With `CN1CCC(COc2cnc(-c3cccc(Cn4nc(-c5cccc(C#N)c5)ccc4=O)c3)nc2)CC1` [Tepotinib, tepotinib], the IC50 with EBC-1 worked out at 0.013 µM; in the experiment on MKN45, 0.016 µM.
On to `COc1cc2nccc(Oc3ccc(NC(=O)C4(C(=O)Nc5ccc(F)cc5)CC4)cc3)c2cc1OC` [Cabozantinib, cabozantinib], for which the results for the concentration for half-maximal inhibition (IC50) in the experiment on EBC-1 and with MKN45 were 0.028 µM and 0.067 µM, respectively.
As for `C[C@@H](c1ccc2nccn2c1)n1nnc2ncc(-c3cnn(C)c3)nc21` [Savolitinib, savolitinib], the results for the IC50 in the experiment on EBC-1 and with MKN45 were 0.0015 µM and 0.003 µM, respectively.
Take `Cc1cccc(/C=N/Nc2cc(N3CCOCC3)n3nc(-c4ccncc4)cc3n2)c1` [APY-0201]: the IC50 worked out at 0.171 µM in the experiment on EBC-1 and 0.269 µM with MKN45.
For the compound `CNC(=O)c1cc(Oc2ccc(NC(=O)Nc3ccc(Cl)c(C(F)(F)F)c3)c(F)c2)ccn1` [Regorafenib, regorafenib], the IC50 in the experiment with HCT-15 was 7.05 µM; in the experiment on HT-29, 6.51 µM; with Caki-1, 5.96 µM; in the experiment with A549, 6.38 µM; in the experiment on RKO cells, 4.92 µM.
Consider `Cn1cnc2c(F)c(Nc3ccc(Br)cc3F)c(C(=O)NOCCO)cc21` [Binimetinib, binimetinib], for which the IC50 was more than 5 µM in the experiment with GP5d, 0.075 µM in the experiment with EBC-1 and 0.533 µM with MKN45.
For the compound `CNC(=O)c1ccc(-c2cnc3ncc(Cc4ccc5ncccc5c4)n3n2)cc1F` [Capmatinib, capmatinib], the IC50 in the experiment with EBC-1 turned out to be 0.0007 µM; in the experiment with MKN45 it was 0.0015 µM.
Consider `CCCS(=O)(=O)Nc1ccc(F)c(C(=O)c2c[nH]c3ncc(-c4ccc(Cl)cc4)cc23)c1F` [Vemurafenib, vemurafenib], for which the IC50 in the experiment on LS411N was 0.35 µM; with HCT-15 it was more than 10 µM; with HT-29, 2.47 µM; with RKO cells, 7.12 µM.
In the case of `C[C@@H](Oc1cc(-c2cnn(C3CCNCC3)c2)cnc1N)c1c(Cl)ccc(F)c1Cl` [Crizotinib, crizotinib], the IC50 in the experiment with EBC-1 was 0.01 µM; with MKN45, 0.013 µM.
In the case of `COCCOc1cnc2ccn([C@H](C)c3nnc4c(F)cc(-c5cnn(C)c5)cn34)c(=O)c2c1` [AMG 337], the IC50 in the experiment on EBC-1 stood at 0.004 µM; in the experiment with MKN45, 0.007 µM.
By viability is commonly meant a read-out of living cells in per cent, often relative to untreated cells. As for `Cn1cnc2c(F)c(Nc3ccc(Br)cc3Cl)c(C(=O)NOCCO)cc21` [Selumetinib, selumetinib], the half-inhibitory concentration (IC50) in the experiment on LS411N amounted to 0.046 µM. In addition, the concentration for half-maximal inhibition (IC50) with EBC-1 was determined as 0.16 µM. The IC50 in the experiment with MKN45 is 1.11 µM. For the same compound, the IC50 with RKO cells amounted to 3.51 µM. Also, in the experiment with RKO cells (setting [1]), the viability at 0.078 µM is 78%, the viability at 0.125 µM amounted to 78%, the viability at 0.313 µM is 71% and the viability at 0.625 µM is 74%. For the same compound, in the experiment with RKO cells (setting [1]), the viability at 1.25 µM came to 64%, the viability at 2.5 µM was found to be 53%, the viability at 5 µM came out at 46% and the viability at 100 µM came out at 32%.
For `CC(=O)Nc1cccc(-n2c(=O)n(C3CC3)c(=O)c3c(Nc4ccc(I)cc4F)n(C)c(=O)c(C)c32)c1` [Trametinib, trametinib], the IC50 is more than 5 µM in the experiment on GP5d; 0.001 µM with LS411N; 0.003 µM in the experiment with HT-29; 0.01 µM in the experiment on EBC-1; 0.018 µM in the experiment on MKN45; 0.047 µM in the experiment with Caki-1. The IC50 in the experiment on A549 was 0.017 µM; with NCI-H1792, 0.033 µM; in the experiment with RKO cells it was 0.032 µM; in the experiment with A375 it was 0.002 µM.
Take `O=C(c1ccc(F)c(F)c1Nc1ccc(I)cc1F)N1CC(O)([C@@H]2CCCCN2)C1` [Cobimetinib, cobimetinib]: the IC50 in the experiment on GP5d was more than 5 µM; in the experiment with EBC-1, 0.136 µM; in the experiment with MKN45, 0.194 µM; in the experiment on Caki-1 it was more than 5 µM; in the experiment on A549 it was 0.403 µM.
In the case of `Cn1nccc1Nc1nccc(-c2ccn([C@H](CO)c3ccc(Cl)c(F)c3)c(=O)c2)n1` [GDC-0994], the IC50 in the experiment on EBC-1 was found to be 4.15 µM; in the experiment on MKN45, 5.33 µM.
With `CC(C)Nc1cc(-c2c[nH]c(C(=O)N[C@H](CO)c3cccc(Cl)c3)c2)c(Cl)cn1` [BVD-523], the IC50 was determined as 0.866 µM in the experiment with EBC-1, 0.433 µM with MKN45 and 0.945 µM with RKO cells.
